Test results as given in patent publication US7687491B2, “Heterocyclic compound” (Daiichi Sankyo Company, Limited, priority 2005, dated 2010).
Structures can show the parent of a compound that is named as a salt.

What follows are compounds tested on host-versus-graft reaction (HvGR) in the rat (assay: Inhibitory activity against host-versus-graft reaction (HvGR) in the rat (popliteal lymph node weight)). Settings: po, 1 mg/kg orally once daily for 4 successive days, Lewis rats injected with WKAH/Hkm spleen cells, weight of popliteal lymph nodes vs control group, read-out: Inhibition Rate (%, 1 mg/kg of administration).
Format: in vivo
From the text: Determination of Inhibitory Activities of the Compound Against Host-Versus-graft Reaction (HvGR) in the Rat
(1) Two strains of rats [Lewis rats (male, 6 weeks of age, Charles River Japan Inc.) and WKAH/Hkm rats (male, 7 weeks of age, Japan SLC Inc.)] were used. Five rats (host) per group were used.
Spleen cells were isolated from the spleens of WKAH/Hkm rats or Lewis rats and floated in RPMI1640 medium (Life Technologies Inc.) at a concentration of 1×10^8 cells/ml. A 0.1-ml aliquot of the medium containing the free-floating spleen cells (1×10^7 cells) of WKAH/Hkm rats or Lewis rats was then intradermally injected into the bilateral foot pads of the hindlimbs of both sides of Lewis rats.
(3) Administration of Test Compound
The test compound was suspended in 0.5% tragacantha solution. The suspended solution of a compound of the present invention (5 ml/kg of body weight of the rat) was orally administered to rats of the drug-treated group (the Lewis rats in which spleen cells of WKAH/Hkm rats were injected and the test compound was administered) once daily for 4 successive days starting on the day of the spleen cell injection. Furthermore, tragacantha solution (0.5%) instead of the test substance was orally administered to rats in the “same strain group” (Lewis rats injected with spleen cells of Lewis rats) and the control group (Lewis rats injected with spleen cells of WKAH/Hkm rats and not treated with the test compound).
(4) Determination of Inhibitory Activity Against HvGR
The average weight of the popliteal lymph nodes of the same strain rats was subtracted from the individual weights of the popliteal lymph nodes of individual rats (“weight of the popliteal lymph nodes after HvGR-induction”). The inhibitory activity of a compound was calculated from the “weight of the popliteal lymph nodes after HvGR induction” of individual rats in the drug-treated group versus the average “weight of the popliteal lymph nodes after HvGR induction” in the control group.

SMILES | inhibition in vivo at 1 mg/kg
CCc1cc(CN2CC(C(=O)O)C2)sc1-c1noc(-c2ccc(Oc3ccccc3F)cc2)n1 [Example 10, 1-[(4-Ethyl-5-{5-[4-(2-fluorophenoxy)phenyl]-1,2,4-oxadiazol-3-yl}-2-thienyl)methyl]azetidine-3-carboxylic acid 1/2 oxalate] | 61.8%
Cc1cc(CN2CC(C(=O)O)C2)sc1-c1noc(-c2ccc(Oc3ccccc3)c(F)c2)n1 [Example 11, 1-({5-[5-(3-Fluoro-4-phenoxyphenyl)-1,2,4-oxadiazol-3-yl]-4-methyl-2-thienyl}methyl)azetidine-3-carboxylic acid] | 51.6%
Cc1cc(CN2CC(C(=O)O)C2)sc1-c1noc(-c2ccc(Oc3ccccc3)cc2)n1 [Example 12, 1-({4-Methyl-5-[5-(4-phenoxyphenyl)-1,2,4-oxadiazol-3-yl]-2-thienyl}methyl)azetidine-3-carboxylic acid] | 55.4%
CCc1cc(CN2CC(C(=O)O)C2)sc1-c1noc(-c2ccc(Oc3ccccc3)cc2)n1 [Example 13, 1-({4-Ethyl-5-[5-(4-phenoxyphenyl)-1,2,4-oxadiazol-3-yl]-2-thienyl}methyl)azetidine-3-carboxylic acid] | 61.3%
CCc1cc(CN2CC(C(=O)O)C2)sc1-c1noc(-c2ccc(Oc3ccccc3)c(F)c2)n1 [Example 14, 1-({4-Ethyl-5-[5-(3-fluoro-4-phenoxyphenyl)-1,2,4-oxadiazol-3-yl]-2-thienyl}methyl)azetidine-3-carboxylic acid] | 65.6%
CCc1cc(CN2CC(C(=O)O)C2)sc1-c1noc(-c2ccc(Oc3cccc(F)c3)cc2)n1 [Example 17, 1-[(4-Ethyl-5-{5-[4-(3-fluorophenoxy)phenyl]-1,2,4-oxadiazol-3-yl}-2-thienyl)methyl]azetidine-3-carboxylic acid] | 65%
CC(C)Cc1ccc(-c2nc(-c3ccc(CN4CC(C(=O)O)C4)nc3)no2)cc1Cl [Example 26, 1-({5-[5-(3-Chloro-4-isobutylphenyl)-1,2,4-oxadiazol-3-yl]pyridin-2-yl}methyl)azetidine-3-carboxylic acid] | 80%
Cc1cc(-c2nc(-c3ccc(CN4CC(C(=O)O)C4)nc3C)no2)ccc1CC(C)C [Example 27, 1-({5-[5-(4-Isobutyl-3-methylphenyl)-1,2,4-oxadiazol-3-yl]-6-methylpyridin-2-yl}methyl)azetidine-3-carboxylic acid 1/2 oxalate] | 80.6%
Cc1cc(-c2nc(-c3ccc(CN4CC(C(=O)O)C4)nc3)no2)ccc1CC(C)C [Example 28, 1-({5-[5-(4-Isobutyl-3-methylphenyl)-1,2,4-oxadiazol-3-yl]pyridin-2-yl}methyl)azetidine-3-carboxylic acid 1/2 oxalate] | 77.5%
CCc1nc(CN2CC(C(=O)O)C2)ccc1-c1noc(-c2ccc(CC(C)C)c(C)c2)n1 [Example 29, 1-({6-Ethyl-5-[5-(4-isobutyl-3-methylphenyl)-1,2,4-oxadiazol-3-yl]pyridin-2-yl}methyl)azetidine-3-carboxylic acid] | 83.5%
CC[C@H](C)Oc1ccc(-c2nc(-c3ccc(CN4CC(C(=O)O)C4)cc3)no2)cc1 [Reference Compound 1, reference compound] | -15.5%
O=C(O)C1CN(Cc2ccc(-c3noc(-c4ccc(OC5CCC5)cc4)n3)cc2)C1 [Reference Compound 2, reference compound] | -19%
